Data on four compounds can be found in patent US4463171A, “Derivatives of macrolide antibiotics” (Sanraku-Ocean Co., Ltd., priority 1982, dated 1984).

In brackets after ≈: the same amount, converted by molar mass.

Data set [1] relates to Staphylococcus aureus MS9861. Nature of the data set: Antibacterial activity (minimum inhibitory concentration), tube dilution method. It is filed as cell-based. The conditions noted are these: Staphylococcus aureus, MS9861; tube dilution method, brain heart infusion broth (pH 7.5); read-out: minimum inhibitory concentration, Staphylococcus aureus MS9861. Here is the method:
(§1) The antibacterial activities of some typical compounds of this invention were measured by a tube dilution method in a brain heart infusion broth (pH 7.5) as a culture medium.

Data set [2] concerns Bacillus subtilis NRRL B558. The description is as above. It is filed as cell-based. The conditions noted are these: Bacillus subtilis, NRRLB558; tube dilution method, brain heart infusion broth (pH 7.5); read-out: minimum inhibitory concentration, Bacillus subtilis NRRL B558. On the procedure:
as §1

The test system of data set [3] is Klebsiella pneumoniae PCI602. The data set is described as above. It is filed as cell-based. The conditions noted are these: PCI602, tube dilution method, brain heart infusion broth (pH 7.5), read-out: minimum inhibitory concentration, Klebsiella pneumoniae PCI602. Here is the method: as §1
The test system of data set [4] is Staphylococcus aureus 209P. Described as above. It is filed as cell-based. Particulars: tube dilution method, brain heart infusion broth (pH 7.5), read-out: minimum inhibitory concentration, Staphylococcus aureus 209P. Here is the method:
as §1

The conditions of data set [5]: cited from earlier work.
For data set [6] the following is noted: cited from earlier work. The source holds these as a separate data set.

With `CCC1OC(=O)CC(O)C(C)C(OC2OC(C)C(OC3CC(C)(O)C(OC(=O)CSc4ccccc4)C(C)O3)C(N(C)C)C2O)C(CC=O)CC(C)C(=O)C=CC(C)=CC1COC(C)=O` (centres unmarked) [R1=H, R3=drawing 76, AR4=OCOCH3], the MIC in data set [1] is 1.6 µg/mL (≈ 1.71 µM); in data set [2], 0.2 µg/mL (≈ 0.214 µM); in data set [3] it was 100 µg/mL (≈ 107 µM); in data set [4], 0.8 µg/mL (≈ 0.856 µM).
Consider `CCC1OC(=O)CC(O)C(C)C(OC2OC(C)C(OC3CC(C)(O)C(OC(=O)CC(C)C)C(C)O3)C(N(C)C)C2O)C(CC=O)CC(C)C(=O)C=CC(C)=CC1COC(=O)CC(C)C` (centres unmarked) [R1=H, R3=drawing 77, AR4=drawing 78], for which the MIC in data set [1] was 12.5 µg/mL (≈ 13.7 µM); in data set [2], 0.8 µg/mL (≈ 0.879 µM); in data set [3], 6.3 µg/mL (≈ 6.92 µM); in data set [4], 1.6 µg/mL (≈ 1.76 µM).
Regarding `CCC1OC(=O)CC(O)C(C)C(OC2OC(C)C(OC3CC(C)(O)C(OC(=O)CC(C)C)C(C)O3)C(N(C)C)C2O)C(CC=O)CC(C)C(=O)C=CC(C)=CC1CSc1ccccc1` (centres unmarked) [R1=H, R3=drawing 82, AR4=drawing 83], the MIC in data set [1] was 6.3 µg/mL (≈ 6.86 µM); in data set [2] it was 3.1 µg/mL (≈ 3.38 µM); in data set [3], above 100 µg/mL; in data set [4], 3.1 µg/mL (≈ 3.38 µM).
`CC[C@H]1OC(=O)C[C@@H](O)[C@H](C)[C@@H](O[C@@H]2O[C@H](C)[C@@H](O[C@H]3C[C@@](C)(O)[C@@H](O)[C@H](C)O3)[C@H](N(C)C)[C@H]2O)[C@@H](CC=O)C[C@@H](C)C(=O)/C=C/C(C)=C/[C@@H]1CO[C@@H]1O[C@H](C)[C@@H](O)[C@@H](OC)[C@H]1OC` [tylosin]: in data set [5], the “absorbability and excretability in vivo” value is listed as “low”. Moreover, in data set [6], the “antibacterial activity in vitro” value is reported as “high antibacterial activity in vitro”.
